Laboratory results: patent publication US20110195432A1, “METHODS FOR THE SELECTION OF THERAPEUTIC TREATMENTS FOR CANCER” (priority 2008, published 2011)

Columns and labels:
PSA = test: Real-time PCR of AR target gene expression, LNCaP cells; format: cell-based; details: increasing doses, vehicle set to 1
Description: (§1) All samples were run in triplicate. The vehicle-treated sample was set to 1.

HSP90 = details: sulforaphane 20 μM
Description: (§2) LNCaP and VCaP cells were grown according to ATCC instructions. Sulforaphane (SFN, #S4441 Sigma, St. Louis, Mo.) was re-suspended in DMSO. Vehicle-treated cells received the respective vehicle controls Immunoprecipitations were carried out after treatment with sulforaphane (20 μM) or vehicle for 4 hours followed by a Western blot for HSP90 and AR. Enrichment was quantified for each immunoprecipitation. Inputs were probed with the indicated antibodies by Western blot and were quantified.
(§3) Immunoprecipitation and immunoblotting were performed as described (Qian et al., Clin. Cancer Res. 12:634-42, 2006). The following antibodies used in immunoblotting or immunoprecipitations (indicated dilutions are for immunoblotting): AR (1:1000, #06-680 Upstate, Billerica, Mass.); acetylated lysine (#05-515 Upstate, Billerica, Mass.); acetylated tubulin (1:2000, #T6793 Sigma, St. Louis, Mo.); alpha-tubulin (1:10,000, #T6074 Sigma, St. Louis, Mo.); beta-actin (1:5000, #A5441 Sigma, St. Louis, Mo.); ERG-1/2/3, (1:5000, #sc-354X Santa Cruz, Santa Cruz, Calif.); FLAG epitope (#F7425 Sigma, St. Louis, Mo.); GAPDH (1:5000, #sc-32233 Santa Cruz, Santa Cruz, Calif.); HDAC6 (1:1000, #sc-11420 Santa Cruz); HSP90 (1:1000, #SPA-840 Stressgen, Ann Arbor, Mich.); mouse IgG (#sc-2025 Santa Cruz, Santa Cruz, Calif.). The following secondary antibodies were used: ECL-conjugated anti-mouse IgG, (1:5000, #A6782 Sigma, St. Louis, Mo.); ECL-conjugated anti-rabbit IgG (1:3000, #NA934 Amersham, Piscataway, N.J. or 1:10,000, #sc-2004 Santa Cruz, Santa Cruz, Calif.). X-ray exposures were scanned as uncompressed images and bands were quantified by densitometry with Quantity One software (Bio-Rad, Hercules, Calif.). Intensity values were normalized to those of the endogenous controls. The vehicle sample was set to 1. Enrichment was calculated as: (intensity IP/intensity input)/(intensity IgG/intensity input) or intensity IP/input (FIG. 1B).

HSP90 and AR = test system: HSP90 and AR
Description: as §2, §3

AR [1] = test: Western blot of AR protein levels, LNCaP cells; format: cell-based
PSA ARE = details: LNCaP cells; 20 μM sulforaphane, 24 hours; versus vehicle-treated cells
Description: To determine whether AR protein depletion from its target genes' androgen response elements (AREs) was responsible for reduced target gene expression, chromatin immunoprecipitation (ChIP) was performed. Cells were cross-linked with formaldehyde and reactions were stopped with glycine. Crosslinked cells were re-suspended in RIPA with SigmaFast protease inhibitors tablets (Sigma, St. Louis, Mo.) and sonicated on ice using a Branson Digital Sonifer model 450 (Branson Ultrasonics Co., Danbury, Conn.). Sonicated cellular lysates were used for Matrix ChIP (Flanagin et al., Nucleic Acids Res 36: e17, 2008) Immunoprecipitations were performed without adding an antibody or with 500 ng of an anti-AR antibody. PCR reactions were amplified using a thermocycler (see supplementary methods). ChIP PCR primer sequences were as follows:
Primers were synthesized by IDT (Coralville, Iowa). ChIP PCR program consisted of: 95° C. for 5 minutes for 1 cycle; 95° C. for 30 seconds, 58° C.(TMPRSS2-ERG) or 60° C. (PSA) for 30 seconds, and 72° C. for 30 seconds for 35-40 cycles; 72° C. final extension for 5 minutes. […] Bands were imaged for densitometry using a Gel Doc XR UV transilluminator and Quantity One software (Bio-Rad, Hercules, Calif.).

AR [2] = test: Real-time PCR of AR gene expression, LNCaP cells; format: cell-based
Description: as §1

ERG = details: VCaP cells; 20 μM sulforaphane, 24 hours; treated in parallel with ChIP
Description: as §3, with “The vehicle sample was set to 1.” left out

[3] = 4 hour treatment, vehicle versus sulforaphane

In the case of `C[S+]([O-])CCCCN=C=S` (centres unmarked) [sulforaphane, 1-Isothiocyanato-4-methylsulfinylbutane], the “AR target gene expression (PSA)” value (PSA) is reported as “dose-dependent reduction”, the “enrichment of acetylated lysines on the HSP90 protein” value (HSP90; LNCaP cells, four hours, versus vehicle-treated cells) is reported as “increased enrichment of acetylated lysines on the HSP90 protein” and the “levels of HSP90 in input whole cell lysate” value (HSP90; 4 hours, versus vehicle) is reported as “similar”. For the same compound, the “interaction between HSP90 and AR” value (HSP90 and AR; 4 hour sulforaphane treatment, as opposed to vehicle) was “disrupted”, the “Levels of acetylation of the AR” value (HSP90 and AR; [3]) was “similar” and the “levels of AR in input whole cell lysate” value (AR [1]; [3]) was “similar”. The “AR protein depletion in HDAC6-over-expressing cells” value (AR [1]; FLAG-HDAC6 transfected LNCaP cells, sulforaphane-treated, versus empty-vector, sulforaphane-treated cells) was “attenuated”, the AR protein levels (AR [1]; LNCaP cells, 12 hours, highest doses tested (10-20 μM)) was “decreased” and the “onset of AR protein decline” value (AR [1]; after sulforaphane treatment) was 6 to 12 h. For the same compound, the AR protein (AR [1]; empty-vector transfected LNCaP cells, 16-hour treatment with 15 nM sulforaphane versus vehicle) was “decreased”, the “enrichment of AR at the PSA ARE” value (PSA ARE) was “reduced enrichment” and the “AR transcript levels at highest dose” value (AR [2]; 20 μM) was “declined”. The AR transcripts (AR [2]; increasing doses of sulforaphane, or TSA, vehicle set to 1) was “not consistently suppressed” and the “levels of ERG protein in whole cell lysates” value (ERG) was “near absent levels”.
